The assay has as its system P388 leukemia ip, CD2F1 mice, survival T/C. As to the kind of experiment: NCI In Vivo Anticancer Drug Screen. Data for tumor model P388 Leukemia (intraperitoneal) in CD2F1 (CDF1) mice. Particulars: endpoint: median survival time, higher = longer survival. The essentials: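 Mice carrying the transplanted tumor received test compound or vehicle. Survival was recorded in each group, and the value is the treated-group measurement divided by that of the vehicle-treated control group.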

Setting [1] is: dose: 50.0 mg/kg/injection, schedule: Q01DX005 (ip), vehicle: saline with Tween-80.
Setting [2] is: dose: 100.0 mg/kg/injection, schedule: Q01DX005 (ip), vehicle: saline with Tween-80.
The mark [3] stands for this setting: dose: 200.0 mg/kg/injection, schedule: Q01DX005 (ip), vehicle: saline with Tween-80.
[4] abbreviates: dose: 50.0 mg/kg/injection, schedule: Q01DX005 (ip), vehicle: Klucel (hydroxypropylcellulose) (HPC).
Where [5] appears, read: dose: 100.0 mg/kg/injection, schedule: Q01DX005 (ip), vehicle: Klucel (hydroxypropylcellulose) (HPC).
[6] abbreviates: dose: 200.0 mg/kg/injection, schedule: Q01DX005 (ip), vehicle: Klucel (hydroxypropylcellulose) (HPC).

Several values for one entry are separate records, joined by “and”; a condition that tells them apart may be missing. Equal entries are not always repeated. Inconclusive results and toxic doses are left out.

Take `CC(C)(C)OC(=O)NNCC(=O)OCc1ccccc1`: the T/C is, setting by setting: (dose: 12.5 mg/kg/injection, schedule: Q01DX009 (ip), vehicle: other) 96 % of control; (dose: 25.0 mg/kg/injection, schedule: Q01DX009 (ip), vehicle: other) 103 % of control; (dose: 50.0 mg/kg/injection, schedule: Q01DX009 (ip), vehicle: other) 111 % of control; (dose: 100.0 mg/kg/injection, schedule: Q01DX009 (ip), vehicle: other) 101 % of control; (dose: 200.0 mg/kg/injection, schedule: Q01DX009 (ip), vehicle: other) 99 % of control.
Consider `CCOC(=O)c1ccc(NC(=O)Nc2nc3ccc(OC)cc3s2)cc1`, for which the T/C by setting is: (dose: 25.0 mg/kg/injection, schedule: Q01DX009 (ip), vehicle: distilled water + Tween-80) 91 % of control; (dose: 50.0 mg/kg/injection, schedule: Q01DX009 (ip), vehicle: distilled water + Tween-80) 89 % of control; (dose: 100.0 mg/kg/injection, schedule: Q01DX009 (ip), vehicle: distilled water + Tween-80) 91 % of control; (dose: 200.0 mg/kg/injection, schedule: Q01DX009 (ip), vehicle: distilled water + Tween-80) 89 % of control; (dose: 400.0 mg/kg/injection, schedule: Q01DX009 (ip), vehicle: distilled water + Tween-80) 89 % of control.
As for `CC(=O)c1c(C)n(C)c2c1nnc1ccccc12`, the T/C was 101 % of control (dose: 60.0 mg/kg/injection, schedule: Q01DX005 (ip), vehicle: Klucel (hydroxypropylcellulose) (HPC)); 97 % of control (dose: 120.0 mg/kg/injection, schedule: Q01DX005 (ip), vehicle: Klucel (hydroxypropylcellulose) (HPC)); 99 % of control (dose: 240.0 mg/kg/injection, schedule: Q01DX005 (ip), vehicle: Klucel (hydroxypropylcellulose) (HPC)).
As to `CNC(=O)OCc1c(COC(=O)NC)c(-c2ccc(Cl)c(Cl)c2)n2c1SCC2`, the T/C under setting [1] was 106 % of control and 123 % of control.
With `CC1(C)OC2(C)CCC1C1C2N1C(=O)Nc1cccc(Cl)c1` (configuration not stated), the T/C runs as follows: under setting [1], 101 % of control; under setting [2], 92 % of control; under setting [3], 89 % of control.
`CCN(CC)S(=O)(=O)c1ccc(-c2cc(Cl)c3cc(S(=O)(=O)F)ccc3n2)cc1`: the T/C runs as follows: (dose: 100.0 mg/kg/injection, schedule: Q04DX003 (ip), vehicle: saline with Tween-80) 100 % of control; (dose: 200.0 mg/kg/injection, schedule: Q04DX003 (ip), vehicle: saline with Tween-80) 100 % of control; (dose: 400.0 mg/kg/injection, schedule: Q04DX003 (ip), vehicle: saline with Tween-80) 95 % of control.
Turning to `CCN1CCCc2cc3c(C(F)(F)F)cc(=O)oc3cc21`, the T/C by setting is: under setting [4], 97 % of control; under setting [5], 106 % of control; under setting [6], 97 % of control.
Regarding `CN(C)CCC(=O)c1ccc(Cl)cc1`, the T/C is 106 % of control (dose: 50.0 mg/kg/injection, schedule: Q01DX009 (ip), vehicle: saline) and 105 % of control (dose: 100.0 mg/kg/injection, schedule: Q01DX009 (ip), vehicle: saline).
For `Cc1cc(C)nc(NS(=O)(=O)c2ccc(Nc3c4ccccc4nc4c([N+](=O)[O-])cccc34)cc2)n1`, the T/C was 100 % of control (dose: 3.75 mg/kg/injection, schedule: Q01DX005 (ip), vehicle: saline with Tween-80); 100 % of control (dose: 7.5 mg/kg/injection, schedule: Q01DX005 (ip), vehicle: saline with Tween-80); 97 % of control (dose: 15.0 mg/kg/injection, schedule: Q01DX005 (ip), vehicle: saline with Tween-80).
With `CCOC(=O)/N=[N+](\[O-])c1ccc([N+](=O)[O-])cc1`, the T/C (dose: 100.0 mg/kg/injection, schedule: Q01DX001 (ip), vehicle: Klucel (hydroxypropylcellulose) (HPC)) is 95 % of control.
`COc1ccc2c(c1)C(c1ccccc1)SC(c1ccccc1)=C2` (configuration not stated): the T/C by setting is: (dose: 50.0 mg/kg/injection, schedule: Q01DX009 (ip), vehicle: Klucel (hydroxypropylcellulose) (HPC)) 107 % of control; (dose: 100.0 mg/kg/injection, schedule: Q01DX009 (ip), vehicle: Klucel (hydroxypropylcellulose) (HPC)) 100 % of control; (dose: 200.0 mg/kg/injection, schedule: Q01DX009 (ip), vehicle: Klucel (hydroxypropylcellulose) (HPC)) 99 % of control.
For the molecule `COc1cccc2c1C(=O)c1c(O)c3c(c(O)c1C2=O)C[C@@](O)(C(C)=O)C[C@@H]3OC1CC(N2CCSCC2)C(O)C(C)O1` (some centres not stated), the T/C (dose: 0.39 mg/kg/injection, schedule: Q04DX003 (ip), vehicle: distilled water + Tween-80) was 118 % of control; the T/C (dose: 0.78 mg/kg/injection, schedule: Q04DX003 (ip), vehicle: distilled water + Tween-80) was 100 % of control; the T/C (dose: 1.56 mg/kg/injection, schedule: Q04DX003 (ip), vehicle: distilled water + Tween-80) is 103 % of control; the T/C (dose: 3.12 mg/kg/injection, schedule: Q04DX003 (ip), vehicle: distilled water + Tween-80) was 113 % of control; the T/C (dose: 6.25 mg/kg/injection, schedule: Q04DX003 (ip), vehicle: distilled water + Tween-80) was 106 % of control; the T/C (dose: 6.25 mg/kg/injection, schedule: Q04DX003 (ip), vehicle: water) is 105 % of control. The T/C was 123 % of control (dose: 12.5 mg/kg/injection, schedule: Q04DX003 (ip), vehicle: distilled water + Tween-80); 113 % of control (dose: 12.5 mg/kg/injection, schedule: Q04DX003 (ip), vehicle: water); 124 % of control (dose: 25.0 mg/kg/injection, schedule: Q04DX003 (ip), vehicle: distilled water + Tween-80); 123 % of control (dose: 25.0 mg/kg/injection, schedule: Q04DX003 (ip), vehicle: water); 169 % of control (dose: 50.0 mg/kg/injection, schedule: Q04DX003 (ip), vehicle: water).
Turning to `CCn1c2ccccc2c2cc(NC(=O)NC(=O)c3ccccc3)ccc21`, the T/C is 90 % of control under setting [1], 90 % of control under setting [2] and 87 % of control under setting [3].
In the case of `N#C/C(=C/C=C/c1ccccc1)c1ccccc1`, the T/C runs as follows: under setting [4], 109 % of control; under setting [5], 102 % of control; under setting [6], 104 % of control.
With `CN(C)C1CC2CCCCC2CC1O` (configuration not stated), the T/C is, setting by setting: (dose: 25.0 mg/kg/injection, schedule: Q04DX003 (ip), vehicle: saline) 93 % of control; (dose: 50.0 mg/kg/injection, schedule: Q04DX003 (ip), vehicle: saline) 99 % of control; (dose: 100.0 mg/kg/injection, schedule: Q01DX001 (ip), vehicle: saline) 104 % of control; (dose: 100.0 mg/kg/injection, schedule: Q04DX003 (ip), vehicle: saline) 103 % of control; (dose: 200.0 mg/kg/injection, schedule: Q01DX001 (ip), vehicle: saline) 98 % of control.
With `O=C1Oc2nc3ccccc3cc2/C1=C/c1ccccc1`, the T/C was 89 % of control (dose: 100.0 mg/kg/injection, schedule: Q04DX002 (ip), vehicle: saline with Tween-80); 92 % of control (dose: 200.0 mg/kg/injection, schedule: Q04DX002 (ip), vehicle: saline with Tween-80); 99 % of control (dose: 400.0 mg/kg/injection, schedule: Q04DX002 (ip), vehicle: saline with Tween-80).
Consider `CN(C)CCCN1CN(CCCN(C)C)CC(C)(C)C1`, for which the T/C was 103 % of control (dose: 50.0 mg/kg/injection, schedule: Q01DX009 (ip), vehicle: saline with Tween-80) and 106 % of control (dose: 100.0 mg/kg/injection, schedule: Q01DX009 (ip), vehicle: saline with Tween-80).
In the case of `Cc1ccc(S(=O)(=O)N(CCCc2c(Cl)nc(N)nc2-c2ccccc2)c2ccccc2)cc1`, the T/C (dose: 60.0 mg/kg/injection, schedule: Q01DX005 (ip), vehicle: saline with Tween-80) is 87 % of control; the T/C (dose: 120.0 mg/kg/injection, schedule: Q01DX005 (ip), vehicle: saline with Tween-80) was 87 % of control; the T/C (dose: 240.0 mg/kg/injection, schedule: Q01DX005 (ip), vehicle: saline with Tween-80) was 89 % of control.
As to `CC1(C)N=C(N)N=C(N)N1c1ccc(F)cc1`, the T/C reads like this: (dose: 12.5 mg/kg/injection, schedule: Q01DX005 (ip), vehicle: Klucel (hydroxypropylcellulose) (HPC)) 110 % of control; (dose: 25.0 mg/kg/injection, schedule: Q01DX005 (ip), vehicle: Klucel (hydroxypropylcellulose) (HPC)) 113 % of control.
For `CNC(=O)N(N=O)c1[nH]c(=O)ncc1Br`, the T/C (dose: 50.0 mg/kg/injection, schedule: Q01DX005 (ip), vehicle: saline + Tween-80 + alcohol) is 104 % of control; the T/C (dose: 100.0 mg/kg/injection, schedule: Q01DX005 (ip), vehicle: saline + Tween-80 + alcohol) was 108 % of control; the T/C (dose: 200.0 mg/kg/injection, schedule: Q01DX005 (ip), vehicle: saline + Tween-80 + alcohol) was 118 % of control.

The values above are taken from PubChem BioAssay AID330 (DTP/NCI, 2004).
